Results taken from US12187746B2, “C26-linked rapamycin analogs as mTOR inhibitors” (Revolution Medicines, Inc., priority 2018, dated 2025).

What was measured:
P-P70S6K (T389) = assay: Cell based AlphaLISA assay, inhibition of P-P70S6K (T389) in MDA-MB-468 cells; details: Homo sapiens, 4 h, 0.017-1,000 nM, two to four hours at 37° C., AlphaLisa SureFire Ultra, read-out: pIC50 for Inhibition of mTORC1 and mTORC2 Substrate Phosphorylation, p-P70S6K-(T389) (converted)
Procedure: (§1) Cell Based AlphaLISA Assays For Determining IC50 For Inhibition of P-Akt (S473), P-4E-BP1 (T37/46), and P-P70S6K (T389) in MDA-MB-468 Cells
(§2) mTOR Kinase Cellular Assay
(§3) To measure functional activity of mTORC1 and mTORC2 in cells the phosphorylation of 4EBP1 (Thr37/46) and P70S6K (Thr389), and AKT1/2/3 (Ser473) was monitored using AlphaLisa SureFire Ultra Kits (Perkin Elmer). […] Incubations are terminated by removal of the assay buffer and addition of lysis buffer provided with the assay kit. Samples are processed according to the manufacturer's instructions. The Alpha signal from the respective phosphoproteins is measured in duplicate using a microplate reader (Envision, Perkin-Elmer or Spectramax M5, Molecular Devices). Inhibitor concentration response curves are analyzed using normalized IC50 regression curve fitting with control based normalization.

P-4E-BP1 (T37/46) = assay: Cell based AlphaLISA assay, inhibition of P-4E-BP1 (T37/46) in MDA-MB-468 cells; details: Homo sapiens, 4 h, 0.017-1,000 nM, two to four hours at 37° C., AlphaLisa SureFire Ultra, read-out: pIC50 for Inhibition of mTORC1 and mTORC2 Substrate Phosphorylation, p-4E-BP1-(T37/46) (converted)
Procedure: as §1, §2, §3

P-Akt (S473) = assay: Cell based AlphaLISA assay, inhibition of P-Akt (S473) in MDA-MB-468 cells; details: Homo sapiens, 4 h, 0.017-1,000 nM, two to four hours at 37° C., AlphaLisa SureFire Ultra, read-out: pIC50 for Inhibition of mTORC1 and mTORC2 Substrate Phosphorylation, p-AKT1/2/3-(S473) (converted)
Procedure: as §1, §2, §3

Row | SMILES | IC50 (P-P70S6K (T389)) | IC50 (P-4E-BP1 (T37/46)) | IC50 (P-Akt (S473))
1 | CO[C@H]1C[C@@H]2CC[C@@H](C)[C@@](O)(O2)C(=O)C(=O)N2CCCC[C@H]2C(=O)O[C@H]([C@H](C)C[C@@H]2CC[C@@H](O)[C@H](OC)C2)C[C@@H](O)[C@H](C)/C=C(\C)[C@@H](O)[C@@H](OC)C(=NOCC(=O)NCCOCCOCCOCCOCCOCCOCCOCCOCCC(=O)NCCCCn2nc(-c3ccc4oc(N)nc4c3)c3c(N)ncnc32)[C@H](C)C[C@H](C)/C=C/C=C/C=C/1C [Example 1] | 1 to 10 nM | 3.16 to 31.6 nM | 31.6 to 1000 nM
2 | CO[C@H]1C[C@@H]2CC[C@@H](C)[C@@](O)(O2)C(=O)C(=O)N2CCCC[C@H]2C(=O)O[C@H]([C@H](C)C[C@@H]2CC[C@@H](O)[C@H](OC)C2)C[C@@H](O)[C@H](C)/C=C(\C)[C@@H](O)[C@@H](OC)C(=NOCC(=O)NCc2cnc(N3CCN(c4ncc(C(=O)NCCOCCOCCOCCC(=O)N5CCc6cc(Cn7nc(-c8cnc9[nH]ccc9c8)c8c(N)ncnc87)ccc6C5)cn4)CC3)nc2)[C@H](C)C[C@H](C)/C=C/C=C/C=C/1C [Example 21] | 1 to 10 nM | 3.16 to 31.6 nM | > 1000 nM
3 | CO[C@H]1C[C@@H]2CC[C@@H](C)[C@@](O)(O2)C(=O)C(=O)N2CCCC[C@H]2C(=O)O[C@H]([C@H](C)C[C@@H]2CC[C@@H](O)[C@H](OC)C2)C[C@@H](O)[C@H](C)/C=C(\C)[C@@H](O)[C@@H](OC)C(=NOCC(=O)NCCOCCC(=O)NCc2cnc(N3CCN(C(=O)CCOCCN4CCN(c5ncc(C(=O)N6CCc7cc(Cn8nc(-c9ccc%10oc(N)nc%10c9)c9c(N)ncnc98)ccc7C6)cn5)CC4)CC3)nc2)[C@H](C)C[C@H](C)/C=C/C=C/C=C/1C [Example 44] | < 1 nM | 3.16 to 31.6 nM | 31.6 to 1000 nM
4 | CO[C@H]1C[C@@H]2CC[C@@H](C)[C@@](O)(O2)C(=O)C(=O)N2CCCC[C@H]2C(=O)O[C@H]([C@H](C)C[C@@H]2CC[C@@H](O)[C@H](OC)C2)C[C@@H](O)[C@H](C)/C=C(\C)[C@@H](O)[C@@H](OC)C(=NOCC(=O)NCCOCCOCCOCCOCCOCCOCCC(=O)NCCCCn2nc(-c3cnc4[nH]ccc4c3)c3c(N)ncnc32)[C@H](C)C[C@H](C)/C=C/C=C/C=C/1C [Example 7] | < 1 nM | 3.16 to 31.6 nM | > 1000 nM
5 | CO[C@H]1C[C@@H]2CC[C@@H](C)[C@@](O)(O2)C(=O)C(=O)N2CCCC[C@H]2C(=O)O[C@H]([C@H](C)C[C@@H]2CC[C@@H](O)[C@H](OC)C2)C[C@@H](O)[C@H](C)/C=C(\C)[C@@H](O)[C@@H](OC)C(=NOCC(=O)NCCOCCC(=O)NCc2cnc(N3CCN(C(=O)CCOCCN4CCN(c5ncc(C(=O)NCCCCn6nc(-c7cnc8[nH]ccc8c7)c7c(N)ncnc76)cn5)CC4)CC3)nc2)[C@H](C)C[C@H](C)/C=C/C=C/C=C/1C [Example 42] | 1 to 10 nM | 3.16 to 31.6 nM | > 1000 nM
6 | CO[C@H]1C[C@@H]2CC[C@@H](C)[C@@](O)(O2)C(=O)C(=O)N2CCCC[C@H]2C(=O)O[C@H]([C@H](C)C[C@@H]2CC[C@@H](O)[C@H](OC)C2)C[C@@H](O)[C@H](C)/C=C(\C)[C@@H](O)[C@@H](OC)C(=NOCC(=O)NCCOCCOCCOCCOCCC(=O)N2CCN(c3ncc(C(=O)NCCCCn4nc(-c5ccc6oc(N)nc6c5)c5c(N)ncnc54)cn3)CC2)[C@H](C)C[C@H](C)/C=C/C=C/C=C/1C [Example 27] | 1 to 10 nM | 3.16 to 31.6 nM | 31.6 to 1000 nM
7 | CO[C@H]1C[C@@H]2CC[C@@H](C)[C@@](O)(O2)C(=O)C(=O)N2CCCC[C@H]2C(=O)O[C@H]([C@H](C)C[C@@H]2CC[C@@H](O)[C@H](OC)C2)C[C@@H](O)[C@H](C)/C=C(\C)[C@@H](O)[C@@H](OC)C(=NOCC(=O)NCc2cnc(N3CCN(c4ncc(C(=O)NCCOCCC(=O)N5CCc6cc(Cn7nc(-c8ccc9oc(N)nc9c8)c8c(N)ncnc87)ccc6C5)c(N)n4)CC3)nc2)[C@H](C)C[C@H](C)/C=C/C=C/C=C/1C [Example 50] | 10 to 1000 nM | > 1000 nM | > 1000 nM
8 | CO[C@H]1C[C@@H]2CC[C@@H](C)[C@@](O)(O2)C(=O)C(=O)N2CCCC[C@H]2C(=O)O[C@H]([C@H](C)C[C@@H]2CC[C@@H](O)[C@H](OC)C2)C[C@@H](O)[C@H](C)/C=C(\C)[C@@H](O)[C@@H](OC)C(=NOc2cccc(C(=O)NCc3cnc(N4CCN(C(=O)CCOCCN5CCN(c6ncc(C(=O)N7CCc8cc(Cn9nc(-c%10ccc%11oc(N)nc%11c%10)c%10c(N)ncnc%109)ccc8C7)cn6)CC5)CC4)nc3)c2)[C@H](C)C[C@H](C)/C=C/C=C/C=C/1C [Example 35] | 10 to 1000 nM | > 1000 nM | > 1000 nM
9 | CO[C@H]1C[C@@H]2CC[C@@H](C)[C@@](O)(O2)C(=O)C(=O)N2CCCC[C@H]2C(=O)O[C@H]([C@H](C)C[C@@H]2CC[C@@H](O)[C@H](OC)C2)C[C@@H](OC)[C@H](C)/C=C(\C)[C@@H](O)[C@@H](OC)C(=NOCC(=O)NCCOCCOCCOCCOCCOCCOCCOCCOCCC(=O)N2CCc3cc(Cn4nc(-c5cnc6[nH]ccc6c5)c5c(N)ncnc54)ccc3C2)[C@H](C)C[C@H](C)/C=C/C=C/C=C/1C [Example 11] | 1 to 10 nM | 3.16 to 31.6 nM | > 1000 nM
10 | CO[C@H]1C[C@@H]2CC[C@@H](C)[C@@](O)(O2)C(=O)C(=O)N2CCCC[C@H]2C(=O)O[C@H]([C@H](C)C[C@@H]2CC[C@@H](O)[C@H](OC)C2)C[C@@H](O)[C@H](C)/C=C(\C)[C@@H](O)[C@@H](OC)/C(=N/OCC(=O)NCCOCCOCCOCCOCCOCCOCCC(=O)NCCCCn2nc(-c3ccc4oc(N)nc4c3)c3c(N)ncnc32)[C@H](C)C[C@H](C)/C=C/C=C/C=C/1C [Example 3] | < 1 nM | 3.16 to 31.6 nM | 31.6 to 1000 nM
11 | CO[C@H]1C[C@@H]2CC[C@@H](C)[C@@](O)(O2)C(=O)C(=O)N2CCCC[C@H]2C(=O)O[C@H]([C@H](C)C[C@@H]2CC[C@@H](O)[C@H](OC)C2)C[C@@H](O)[C@H](C)/C=C(\C)[C@@H](O)[C@@H](OC)C(=NOCC(=O)NCc2cnc(N3CCN(C(=O)CCOCCN4CCN(c5ncc(C(=O)NCCOCCC(=O)N6CCc7cc(Cn8nc(-c9ccc%10oc(N)nc%10c9)c9c(N)ncnc98)ccc7C6)cn5)CC4)CC3)nc2)[C@H](C)C[C@H](C)/C=C/C=C/C=C/1C [Example 39] | 1 to 10 nM | 3.16 to 31.6 nM | > 1000 nM
12 | CO[C@H]1C[C@@H]2CC[C@@H](C)[C@@](O)(O2)C(=O)C(=O)N2CCCC[C@H]2C(=O)O[C@H]([C@H](C)C[C@@H]2CC[C@@H](O)[C@H](OC)C2)C[C@@H](O)[C@H](C)/C=C(\C)[C@@H](O)[C@@H](OC)C(=NOCC(=O)NCc2cnc(N3CCN(C(=O)CCCN4CCN(c5ncc(C(=O)N6CCc7cc(Cn8nc(-c9ccc%10oc(N)nc%10c9)c9c(N)ncnc98)ccc7C6)cn5)CC4)CC3)nc2)[C@H](C)C[C@H](C)/C=C/C=C/C=C/1C [Example 65] | 1 to 10 nM | 3.16 to 31.6 nM | > 1000 nM
13 | CO[C@H]1C[C@@H]2CC[C@@H](C)[C@@](O)(O2)C(=O)C(=O)N2CCCC[C@H]2C(=O)O[C@H]([C@H](C)C[C@@H]2CC[C@@H](O)[C@H](OC)C2)C[C@@H](O)[C@H](C)/C=C(\C)[C@@H](O)[C@@H](OC)C(=NOCC(=O)N2CCc3nc(N4CCN(CCOCCN5CCN(c6ncc(C(=O)N7CCc8cc(Cn9nc(-c%10ccc%11oc(N)nc%11c%10)c%10c(N)ncnc%109)ccc8C7)cn6)CC5)CC4)ncc3C2)[C@H](C)C[C@H](C)/C=C/C=C/C=C/1C [Example 61] | 1 to 10 nM | 3.16 to 31.6 nM | > 1000 nM
14 | CO[C@H]1C[C@@H]2CC[C@@H](C)[C@@](O)(O2)C(=O)C(=O)N2CCCC[C@H]2C(=O)O[C@H]([C@H](C)C[C@@H]2CC[C@@H](O)[C@H](OC)C2)C[C@@H](O)[C@H](C)/C=C(\C)[C@@H](O)[C@@H](OC)C(=NOCC(=O)NCc2cnc(N3CCN(C(=O)CCOCCN4CCN(C(=O)CN(C)CC(=O)N5CCc6cc(Cn7nc(-c8ccc9oc(N)nc9c8)c8c(N)ncnc87)ccc6C5)CC4)CC3)nc2)[C@H](C)C[C@H](C)/C=C/C=C/C=C/1C [Example 36] | 1 to 10 nM | 31.6 to 1000 nM | > 1000 nM
15 | CO[C@H]1C[C@@H]2CC[C@@H](C)[C@@](O)(O2)C(=O)C(=O)N2CCCC[C@H]2C(=O)O[C@H]([C@H](C)C[C@@H]2CC[C@@H](O)[C@H](OC)C2)CC(=O)[C@H](C)/C=C(\C)[C@@H](O)[C@@H](OC)C(=O)[C@H](C)C[C@H](C)/C=C/C=C/C=C/1C [Rapamycin, (3S,6R,7E,9R, 10R, 12R, 14S, 15E, 17E, 19E,21S,23S,26R,27R,34aS)-9, 10, 12, 13, 14,21,22,23,24,25,26,27,32,33,34,34a-hexadecahydro-9,27-dihydroxy-3-[(1R)-2-[(1 S,3 R,4R)-4-hydroxy-3-methoxycyclohexyl]-1-methylethyl]-10,21-dimethoxy-6,8,12,14,20,26-hexamethyl-23,27-epoxy-3H-pyrido[2,1-c][1,4]-oxaazacyclohentriacontine-1,5,11,28,29(4H,6H,31H)-pentone] | < 1 nM | > 1000 nM | > 1000 nM
